Laboratory results: publication PMC7887271, “Fast acting allosteric phosphofructokinase inhibitors block trypanosome glycolysis and cure acute African trypanosomiasis in mice” (Nature Communications, 2021)

Key:
hPFK-P = target: T1, hPFK-P (Homo sapiens, UniProt Q01813); experiment: ALDO/G3PDH/TIM linked enzyme assay, human PFK-P; assay type: biochemical; settings: aldolase/TIM linked assay, 25 °C; highest concentration 100 µM
T1 construct: made in house; host or cells: PFK-deficient Saccharomyces cerevisiae
T1 sequence (Q01813 1-784): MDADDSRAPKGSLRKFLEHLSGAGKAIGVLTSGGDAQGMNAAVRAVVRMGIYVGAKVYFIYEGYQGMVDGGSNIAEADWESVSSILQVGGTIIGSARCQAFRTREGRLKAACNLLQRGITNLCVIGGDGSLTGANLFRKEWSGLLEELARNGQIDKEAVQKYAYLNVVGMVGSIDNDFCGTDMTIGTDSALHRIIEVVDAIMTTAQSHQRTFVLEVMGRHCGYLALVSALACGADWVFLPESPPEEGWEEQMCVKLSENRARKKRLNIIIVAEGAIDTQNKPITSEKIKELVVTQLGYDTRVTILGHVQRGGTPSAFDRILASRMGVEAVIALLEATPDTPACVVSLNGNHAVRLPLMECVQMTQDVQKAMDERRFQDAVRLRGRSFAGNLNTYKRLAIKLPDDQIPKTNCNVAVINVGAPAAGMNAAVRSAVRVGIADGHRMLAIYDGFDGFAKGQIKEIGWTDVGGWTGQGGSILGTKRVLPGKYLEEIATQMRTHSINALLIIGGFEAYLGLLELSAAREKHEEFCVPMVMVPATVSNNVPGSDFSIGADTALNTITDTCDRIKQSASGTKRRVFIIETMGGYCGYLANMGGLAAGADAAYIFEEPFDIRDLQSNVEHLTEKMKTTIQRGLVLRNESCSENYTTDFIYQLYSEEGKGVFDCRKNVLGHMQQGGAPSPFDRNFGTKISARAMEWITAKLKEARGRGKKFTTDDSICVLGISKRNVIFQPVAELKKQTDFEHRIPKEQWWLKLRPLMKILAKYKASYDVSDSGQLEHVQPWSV
Protocol: Enzyme activity was measured using an aldolase/TIM linked assay at 25 °C. […] Experiments were carried out in duplicate. Data are presented as mean values ± standard deviation. […] Source data are provided as a Source Data File. b Kill time of CTCB-405 compared with existing HAT drugs in the clinic. […] Over 99% of trypanosomes were killed in under 30 min compared with much slower killing rates for the other drugs. The points on the graph for CTCB-405 were determined from two independent biological replicate experiments with each time point measured twice (using duplicate technical replicates). The ESD for each point on the graph is between 0.7 and 1.4%. For drugs in clinical use each point on the graph is the average of two technical replicates from one experiment (with a maximum difference of 7.8% for any of the points). Source data are provided as a Source Data File.
In the PFK/PYK/LDH assay, the linked PYK activity acts to convert the ADP produced by PFK back to ATP. As ATP is an inhibitor of human PFK (but not TbPFK) at concentrations higher than ~0.5 mM the regeneration of ATP is likely to affect the assay readout. […] TIM interconverts GA3P and DHAP, and DHAP is reduced to glycerol 3-phosphate by G3PD, alongside the oxidation of NADH to NAD^+, which was measured by observing the change in UV absorbance at 340 nm for 10 minutes at 25° C using a Spectramax© M5 Multimode plate reader. […]

[1] = system: CYP3A4, CYP2D6, CYP2C9, CYP2C19, CYP1A2; experiment: Inhibition of CYP450, five isoform panel; assay type: in vitro ADME; settings: human, CYP450 isoform inhibition kit (BD Biosciences), 3A4, 2D6, 2C9, 2C19, 1A2, read-out: % inhibition of CYP450 isoforms
Protocol: A HepG2 cytotoxicity assay was used to determine a cellular selectivity index. HepG2 cells were seeded into 96-well plates in EMEM medium. Compounds were assessed for their effect upon cellular viability (Supplementary Methods 5.1). Inhibition of CYP450 was determined using kits from BD Biosciences (Supplementary Methods 5.2). Metabolic stability was determined using mouse […] tested at a single concentration of 5 µM. Plasma protein binding was determined using mouse and human plasma at a single concentration of 10 µM (Supplementary Methods 5.4). All PK studies in mice were carried out by Pharmidex (Supplementary Methods 6.1).
The compounds were investigated for their inhibitory effect on cytochrome P450 (CYP450) activity using five CYP450 isoforms (with fluorescent substrates in brackets): 3A4 (two substrates, BFC and DBF), 2D6 (AMMC), 2C9 (MFC), 2C19 (CEC) and 1A2 (CEC). Kits from BD Biosciences were used along with the method described by the manufacturer. […] Fluorescence was measured using a SpectraMax M5 plate reader.

Compound | inhibition of hPFK-P (hPFK-P) | inhibition at 10 µM [1]
CN(C)CCn1ccc2c(ccn2Cc2ccc(Cl)c(Cl)c2)c1=O [CTCB-405, 1-[(3,4-Dichlorophenyl)methyl]-5-[2-(dimethylamino)ethyl] pyrrolo[3,2-c]pyridin-4-one] | no significant inhibition | 
CN(C)CCn1ccc2c(ccn2Cc2ccc(F)c(Br)c2)c1=O [CTCB-508, 1-[(3-Bromo-4-fluorophenyl)methyl]-5-[2-(dimethylamino)ethyl] pyrrolo[3,2-c]pyridin-4-one] |  | ≤ 10%
